How the values were obtained:
Test in all cases: Test A pre-/postemergence herbicide test
[1] = tested on: morningglory; format: in vivo, Ipomoea spp.
From the text: (§1) Seeds of plant species selected from bamyardgrass (Echinochloa crus-galli), kochia (Kochia scoparia), ragweed (common ragweed, Ambrosia elatior), ryegrass, Italian (Italian ryegrass, Lolium multiflorum), crabgrass, large (large crabgrass Digitaria sanguinalis), giant foxtail (Setaria faberii), morningglory (Ipomoea spp.), pigweed (Amaranthus retroflexus), velvetleaf (Abutilon theophrasti), wheat (Triticum aestivum), and corn (Zea mays) were planted into a blend of loam soil and sand and treated preemergence with a directed soil spray using test chemicals formulated in a non-phytotoxic solvent mixture which included a surfactant. At the same time, plants selected from these crop and weed species and also blackgrass (Alopecurus myosuroides), and galium (catchweed bedstraw, Galium aparine) were planted in pots containing the same blend of loam soil and sand and treated with postemergence applications of test chemicals formulated in the same manner. Plants ranged in height from 2 to 10 cm and were in the one- to two-leaf stage for the postemergence treatment. Treated plants and untreated controls were maintained in a greenhouse for approximately 10 days, after which time all treated plants were compared to untreated controls and visually evaluated for injury. Plant response ratings, summarized in Table A, are based on a 0 to 100 scale where 0 is no effect and 100 is complete control. A dash (-) response means no test result.

[2] = tested on: pigweed; format: in vivo, Amaranthus retroflexus
From the text: as §1

[3] = tested on: giant foxtail; format: in vivo, Setaria faberii; settings: 1000 g ai/ha
How it was run: (§2)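 Greenhouse pot test with pre- and postemergence application of surfactant-containing solvent formulations. Postemergence plants were 2–10 cm, one- to two-leaf stage. Response scored visually after ~10 days, 0 (no effect) to 100 (complete control).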

[4] = tested on: barnyardgrass; format: in vivo, Echinochloa crus-galli; settings: 1000 g ai/ha
How it was run: as §2

[5] = tested on: corn; format: in vivo, Zea mays; settings: 1000 g ai/ha
How it was run: as §2

[6] = tested on: crabgrass, large; format: in vivo, Digitaria sanguinalis; settings: 1000 g ai/ha
How it was run: as §2

[7] = tested on: wheat; format: in vivo, Triticum aestivum
How it was run: as §2

[8] = tested on: velvetleaf; format: in vivo, Abutilon theophrasti; settings: 1000 g ai/ha
From the text: as §1

[9] = Postemergence, 1000 g ai/ha, 0 to 100 scale (0 no effect, 100 complete control)
[10] = Preemergence, 1000 g ai/ha, visual rating on 0 to 100 scale (0 no effect, 100 complete control), approx. 10 days
[11] = Postemergence, 0 to 100 scale (0 no effect, 100 complete control)
[12] = Preemergence, visual rating on 0 to 100 scale (0 no effect, 100 complete control), approx. 10 days
[13] = preemergence, 1000 g ai/ha, 0 to 100 scale
[14] = preemergence, 0 to 100 scale (0 no effect, 100 complete control)
[15] = Postemergence, 125 g ai/ha, visual rating on 0 to 100 scale (0 no effect, 100 complete control), approx. 10 days

Row | SMILES | Plant response rating, Morningglory [1, 9] | Plant response rating, Morningglory [1, 10] | Plant response rating, Pigweed [2, 9] | Plant response rating, Foxtail, Giant [3, 11] | Plant response rating, Foxtail, Giant [3, 12] | Plant response rating, Barnyardgrass [4, 11] | Plant response rating, Barnyardgrass [4, 12] | Plant response rating, Corn [5, 11] | Plant response rating, Corn [5, 12] | Plant response rating, Crabgrass, Large [6, 11] | Plant response rating, Crabgrass, Large [6, 12] | Plant response rating, Wheat [7, 9] | Plant response rating, Wheat [7, 10] | Plant response rating, Velvetleaf [8, 11] | Plant response rating, Velvetleaf [8, 12] | Plant response rating, Morningglory [1, 13] | Plant response rating, Pigweed [2, 13] | Plant response rating, Foxtail, Giant ([3]; preemergence, 0 to 100 scale) | Plant response rating, Barnyardgrass [4, 14] | Plant response rating, Corn ([5]; preemergence, 0 to 100 scale) | further results
1 | O=C1NCC(c2ccc(F)c(F)c2)C1C(=O)Nc1ccncc1F (stereo not drawn) [Compound 22] | 0 | 0 | 0 | 0 | 30 | 0 | 0 | 0 | 0 | 0 | 70 | 0 | 0 | 0 | 0 | – | – | – | – | – | –
2 | CN(C(=O)C1C(=O)NCC1c1ccc(F)c(F)c1)c1ccccc1F (stereo not drawn) [Compound 24] | 0 | 0 | 0 | 0 | 40 | 0 | 0 | 0 | 0 | 30 | 70 | 0 | 0 | 0 | 60 | – | – | – | – | – | Plant response rating, Pigweed [2, 10]: 0
3 | C#CCN(C(=O)C1C(=O)NCC1c1ccc(F)c(F)c1)c1ccccc1[N+](=O)[O-] (stereo not drawn) [Compound 265] | 0 | – | 0 | 0 | – | 0 | – | 0 | – | 0 | – | 0 | – | 0 | – | 0 | 0 | 0 | 0 | 0 | Plant response rating, Crabgrass, Large ([6]; preemergence, 0 to 100 scale): 0; Plant response rating, Wheat [7, 13]: 0; Plant response rating, Velvetleaf ([8]; preemergence, 0 to 100 scale): 0
4 | C=CCN(C(=O)C1C(=O)NCC1c1ccc(F)c(F)c1)c1ccccc1[N+](=O)[O-] (stereo not drawn) [Compound 266] | 0 | – | 0 | 0 | – | 0 | – | 0 | – | 0 | – | 0 | – | 0 | – | 0 | 0 | 0 | 0 | 0 | Plant response rating, Morningglory [1, 15]: 20; Plant response rating, Pigweed [2, 15]: 40; Plant response rating, Crabgrass, Large ([6]; preemergence, 0 to 100 scale): 0; Plant response rating, Wheat [7, 15]: 40; Plant response rating, Wheat [7, 13]: 0; Plant response rating, Velvetleaf ([8]; preemergence, 0 to 100 scale): 0
